Assay results: patent US20230192700A1, “PYRAZOLOPYRAZINES ACTING ON CANCERS VIA INHIBITION OF CDK12” (Bayer Aktiengesellschaft, priority 2020, published 2023)
Like-named read-outs stand apart in the source and are kept apart here.

Experiments:
[1] = system: CAL-120 human breast adenocarcinoma cells; experiment: Proliferation assay CAL-120 (crystal violet); assay type: cell-based; conditions: CAL-120 cells, 4 days, median, read-out: Prolif-CAL-120— IC50 - [mol/l] (median)
Method: 4. Proliferation assay: MDA-MB-231, CAL-120
Human tumour cells were originally obtained from the American Type Culture Collection (ATCC), or from the Deutsche Sammlung von Mikroorganismen and Zellkulturen (DSMZ, German Collection of Microorganisms and Cell Cultures). Cultivated tumour cells (CAL-120, human breast adenocarcinoma cells, DSMZ ACC-459; MDA-M B-231, human breast cancer cells, ATCC HTB-26) were plated at a density of 4,000 cells/well in a 96-well multititer plate in 200 microL of their respective growth medium supplemented 10% fetal calf serum. After 24 hours, the cells of one plate (zero-point plate) were stained with crystal violet (see below), while the medium of the other plates was supplemented with the test substances in various concentrations (0 micromol/L, as well as in the range of 0.01-10 micromol/L; the final concentration of the solvent dimethyl sulfoxide was adjusted to 0.1%) using a Tecan HP D300 Digital Dispenser. The cells were incubated for 4 days in the presence of test substances. Cell proliferation was determined by staining the cells with crystal violet: the cells were fixed by adding 20 microL/measuring point of an 11% glutaric aldehyde solution for 15 minutes at room temperature. After three washing cycles of the fixed cells with water, the plates were dried at room temperature. The cells were stained by adding 100 microL/measuring point of a 0.1% crystal violet solution (pH 3.0). After three washing cycles of the stained cells with water, the plates were dried at room temperature. The dye was dissolved by adding 100 microL/measuring point of a 10% acetic acid solution. The extinction was determined by photometry at a wavelength of 595 nm. The change of cell number, in percent, was calculated by normalization of the measured values to the extinction values of the zero-point plate(=0%) and the extinction of the untreated (0 μM) cells(=100%). The IC50 values (inhibitory concentration at 50% of maximal effect) were determined by means of a 4 parameter fit.

CDK9/CyclinT1 = biological target: T1, CDK9/CyclinT1 (Homo sapiens, UniProt P50750); experiment: CDK9/CycT1 high ATP kinase assay (TR-FRET); assay type: biochemical; conditions: 2 mM ATP (high ATP); median; read-out: CDK9/CyclinT1, 2 mM ATP (high ATP) IC50 - [mol/l] (median)
T1 construct: Recombinant full-length His-tagged human CDK9 and CycT1; His-tag; purchased Life Technologies PV4131; host or cells: insect cells
T1 sequence (P50750 whole entry): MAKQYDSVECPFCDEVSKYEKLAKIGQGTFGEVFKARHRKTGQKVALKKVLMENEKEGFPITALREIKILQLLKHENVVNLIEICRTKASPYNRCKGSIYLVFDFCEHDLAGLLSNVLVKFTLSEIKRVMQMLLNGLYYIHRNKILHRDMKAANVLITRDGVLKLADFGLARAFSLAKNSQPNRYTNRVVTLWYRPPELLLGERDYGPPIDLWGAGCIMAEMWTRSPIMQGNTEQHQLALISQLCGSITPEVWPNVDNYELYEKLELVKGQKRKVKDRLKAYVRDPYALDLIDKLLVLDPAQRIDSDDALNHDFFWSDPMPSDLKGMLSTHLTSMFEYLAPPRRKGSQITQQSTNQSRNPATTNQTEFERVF
T1 sequence (O60563 whole entry partner): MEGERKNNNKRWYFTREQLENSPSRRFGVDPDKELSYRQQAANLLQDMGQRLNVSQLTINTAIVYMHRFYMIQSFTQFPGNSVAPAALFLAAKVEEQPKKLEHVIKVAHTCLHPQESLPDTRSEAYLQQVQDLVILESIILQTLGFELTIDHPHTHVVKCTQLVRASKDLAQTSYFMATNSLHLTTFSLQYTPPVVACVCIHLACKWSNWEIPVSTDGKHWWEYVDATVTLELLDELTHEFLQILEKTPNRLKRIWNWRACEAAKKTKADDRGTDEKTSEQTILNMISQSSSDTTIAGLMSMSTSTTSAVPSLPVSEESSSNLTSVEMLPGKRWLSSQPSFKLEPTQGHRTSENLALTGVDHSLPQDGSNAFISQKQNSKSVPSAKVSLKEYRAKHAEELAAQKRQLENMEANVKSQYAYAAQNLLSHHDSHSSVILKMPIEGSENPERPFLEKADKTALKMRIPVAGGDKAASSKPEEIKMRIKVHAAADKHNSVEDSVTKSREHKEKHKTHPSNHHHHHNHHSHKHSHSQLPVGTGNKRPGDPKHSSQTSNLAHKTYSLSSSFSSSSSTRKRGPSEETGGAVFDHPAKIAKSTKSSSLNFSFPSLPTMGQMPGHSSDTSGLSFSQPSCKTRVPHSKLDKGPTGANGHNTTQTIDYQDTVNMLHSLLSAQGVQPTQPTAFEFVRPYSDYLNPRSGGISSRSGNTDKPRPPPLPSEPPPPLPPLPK
Method: 2.5 CDK9/CycT1 High ATP Kinase Assay
CDK9/CycT1 -inhibitory activity of compounds of the present invention at a high ATP concentration after preincubation of enzyme and test compounds was quantified employing the CDK9/CycT1 TR-FRET assay as described in the following paragraphs.
Recombinant full-length His-tagged human CDK9 and CycT1, expressed in insect cells and purified by Ni-NTA affinity chromatography, were purchased from Life Technologies (Cat. No PV4131). As substrate for the kinase reaction biotinylated peptide biotin-Ttds-YISPLKSPYKISEG (C-terminus in amide form) was used which can be purchased e.g. form the company JERINI peptide technologies (Berlin, Germany).
For the assay 50 nanoL of a 100 fold concentrated solution of the test compound in DMSO was pipetted into either a black low volume 384 well microtiter plate or a black 1536 well microtiter plate (both Greiner Bio-One, Frickenhausen, Germany), 2 microL of a solution of CDK9/CycT1 in aqueous assay buffer [50 millimol/L Tris/HCl pH 8.0, 10 millimol/L MgCl2, 1.0 millimol/L dithiothreitol, 0.1 millimol/L sodium ortho-vanadate, 0.01% (v/v) Nonidet-P40 (Sigma)] were added and the mixture was incubated for 15 min at 22° C. to allow pre-binding of the test compounds to the enzyme before the start of the kinase reaction. Then the kinase reaction was started by the addition of 3 microL of a solution of adenosine-tri-phosphate (ATP, 3.3 millimol/L=>final conc. in the 5 microL assay volume is 2 millimol/L) and substrate (1.25 micromol/L =>final conc. in the 5 microL assay volume is 0.75 micromol/L) in assay buffer and the resulting mixture was incubated for a reaction time of 25 min at 22° C. The concentration of CDK9/CycT1 was adjusted depending of the activity of the enzyme lot and was chosen appropriate to have the assay in the linear range, typical concentrations were in the range of 0.5 microg/mL. The reaction was stopped by the addition of 3 microL of a solution of TR-FRET detection reagents (0.33 micromol/L streptavidine-XL665 [Cisbio Bioassays, Codolet, France] and 1.67 nanomol/L anti-RB(pSer807/pSer811)-antibody from BD Pharmingen [#558389] and 2 nanomol/L LANCE EU-W1024 labeled anti-mouse IgG antibody [Perkin-Elmer, product no. AD0077]) in an aqueous EDTA-solution (167 millimol/L EDTA, 0.2% (w/v) bovine serum albumin in 100 millimol/L HEPES pH 7.5).
The resulting mixture was incubated 1 h at 22° C. to allow the formation of complex between the phosphorylated biotinylated peptide and the detection reagents. Subsequently the amount of phosphorylated substrate was evaluated by measurement of the resonance energy transfer from the Eu-chelate to the streptavidine-XL. Therefore, the fluorescence emissions at 620 nm and 665 nm after excitation at 350 nm was measured in a TR-FRET reader, e.g. a Pherastar (BMG Labtechnologies, Offenburg, Germany) or a Viewlux (Perkin-Elmer). The ratio of the emissions at 665 nm and at […] was taken as the measure for the amount of phosphorylated substrate. The data were normalised (enzyme reaction without inhibitor=0% inhibition, all other assay components but no enzyme=100% inhibition).

IC50 [1] | IC50 (CDK9/CyclinT1) | IC50 ([1]; Homo sapiens, CAL-120, 96 h) | Compound
11.2 nM | > 20000 nM |  | CN1CCC(n2nc(NCc3nc4ccccc4[nH]3)c3ncc(C4CC4)nc32)C1 (single isomer, unassigned) [Example 78, (+) or (−)-N-[(1H-benzimidazol-2-yl)methyl]-6-cyclopropyl-1-(1-methylpyrrolidin-3-yl)-1H-pyrazolo[3,4-b]pyrazin-3-amine]
 | > 20000 nM | 128 nM | OCCCn1nc(NCc2nc3ccccc3[nH]2)c2ncc(C3CC3)nc21 [Example 60, 3-(3-{[(1H-benzimidazol-2-yl)methyl]amino}-6-cyclopropyl-1H-pyrazolo[3,4-b]pyrazin-1-yl)propan-1-ol]
 | > 20000 nM | 81.4 nM | CC(C)(C)OC(=O)N1CCC(n2nc(NCc3nc4ccccc4[nH]3)c3ncc(C4CC4)nc32)CC1 [Example 11, tert-butyl 4-(3-{[(1H-benzimidazol-2-yl)methyl]amino}-6-cyclopropyl-1H-pyrazolo[3,4-b]pyrazin-1-yl)piperidine-1-carboxylate]
 | > 20000 nM | 48.8 nM | FC1(F)CCC(n2nc(NCc3nc4ccccc4[nH]3)c3ncc(C4CC4)nc32)CC1 [Example 36, N-[(1H-benzimidazol-2-yl)methyl]-6-cyclopropyl-1-(4,4-difluorocyclohexyl)-1H-pyrazolo[3,4-b]pyrazin-3-amine]
 | > 20000 nM | 9.75 nM | CN1CCC(n2nc(NCc3nc4cc(Cl)c(F)cc4[nH]3)c3ncc(C4CC4)nc32)CC1 [Example 29, N-[(5-chloro-6-fluoro-1H-benzimidazol-2-yl)methyl]-6-cyclopropyl-1-(1-methylpiperidin-4-yl)-1H-pyrazolo[3,4-b]pyrazin-3-amine]
 | > 20000 nM | 110 nM | OC1(Cn2nc(NCc3nc4ccccc4[nH]3)c3ncc(C4CC4)nc32)CCCC1 [Example 73, 1-[(3-{[(1H-benzimidazol-2-yl)methyl]amino}-6-cyclopropyl-1H-pyrazolo[3,4-b]pyrazin-1-yl)methyl]cyclopentan-1-ol]
 | > 20000 nM | 60.6 nM | OC1(Cn2nc(NCc3nc4ccccc4[nH]3)c3ncc(C4CC4)nc32)CCC1 [Example 72, 1-[(3-{[(1H-benzimidazol-2-yl)methyl]amino}-6-cyclopropyl-1H-pyrazolo[3,4-b]pyrazin-1-yl)methyl]cyclobutan-1-ol]
 | > 20000 nM | 7.7 nM | CN1CCCC(n2nc(NCc3nc4ccccc4[nH]3)c3ncc(C4CC4)nc32)CC1 (racemic) [Example 34, (±)-N-[(1H-benzimidazol-2-yl)methyl]-6-cyclopropyl-1-(1-methylazepan-4-yl)-1H-pyrazolo[3,4-b]pyrazin-3-amine]
 | > 20000 nM | 11 nM | COc1cccc2[nH]c(CNc3nn(C4CCN(C)CC4)c4nc(C5CC5)cnc34)nc12 [Example 2, 6-cyclopropyl-N-[(4-methoxy-1H-benzimidazol-2-yl)methyl]-1-(1-methylpiperidin-4-yl)-1H-pyrazolo[3,4-b]pyrazin-3-amine]
 | > 20000 nM | 11.7 nM | CN1CCC(n2nc(NCc3nc4ccccc4[nH]3)c3ncc(C4CC4)nc32)C1 (racemic) [Example 35, (±)-N-[(1H-benzimidazol-2-yl)methyl]-6-cyclopropyl-1-(1-methylpyrrolidin-3-yl)-1H-pyrazolo[3,4-b]pyrazin-3-amine]
 | > 20000 nM | 266 nM | CN(C)CCn1nc(NCc2nc3ccccc3[nH]2)c2ncc(C3CC3)nc21 [Example 68, N-[(1H-benzimidazol-2-yl)methyl]-6-cyclopropyl-1-[2-(dimethylamino)ethyl]-1H-pyrazolo[3,4-b]pyrazin-3-amine]
 | > 20000 nM | 79.7 nM | COC(C)(C)CCn1nc(NCc2nc3ccccc3[nH]2)c2ncc(C3CC3)nc21 [Example 67, N-[(1H-benzimidazol-2-yl)methyl]-6-cyclopropyl-1-(3-methoxy-3-methylbutyl)-1H-pyrazolo[3,4-b]pyrazin-3-amine]
4.14 nM | > 20000 nM |  | CN1CCCC(n2nc(NCc3nc4ccccc4[nH]3)c3ncc(C4CC4)nc32)CC1 (single isomer, unassigned) [Example 37, (+) or (−)-N-[(1H-benzimidazol-2-yl)methyl]-6-cyclopropyl-1-[(4R*)-1-methylazepan-4-yl]-1H-pyrazolo[3,4-b]pyrazin-3-amine]
 | > 20000 nM | 103 nM | c1ccc2[nH]c(CNc3nn(C4CCOCC4)c4nc(C5CC5)cnc34)nc2c1 [Example 16, N-[(1H-benzimidazol-2-yl)methyl]-6-cyclopropyl-1-(oxan-4-yl)-1H-pyrazolo[3,4-b]pyrazin-3-amine]
 | > 20000 nM | 16.3 nM | CN1CCC(n2nc(NCc3nc4cc(F)ccc4[nH]3)c3ncc(C4CC4)nc32)CC1 [Example 4, 6-cyclopropyl-N-[(5-fluoro-1H-benzimidazol-2-yl)methyl]-1-(1-methylpiperidin-4-yl)-1H-pyrazolo[3,4-b]pyrazin-3-amine]
 | > 20000 nM | 15.4 nM | Fc1cccc2[nH]c(CNc3nn(C4CCOCC4)c4nc(C5CC5)cnc34)nc12 [Example 23, 6-cyclopropyl-N-[(4-fluoro-1H-benzimidazol-2-yl)methyl]-1-(oxan-4-yl)-1H-pyrazolo[3,4-b]pyrazin-3-amine]
9.85 nM | > 20000 nM |  | CN1CCCC(n2nc(NCc3nc4ccccc4[nH]3)c3ncc(C4CC4)nc32)CC1 (single isomer, unassigned) [Example 38, (−) or (+)-N-[(1H-benzimidazol-2-yl)methyl]-6-cyclopropyl-1-[(4R*)-1-methylazepan-4-yl]-1H-pyrazolo[3,4-b]pyrazin-3-amine]
 | > 20000 nM | 65.7 nM | c1ccc2[nH]c(CNc3nn(C4CCOC4)c4nc(C5CC5)cnc34)nc2c1 (racemic) [Example 10, (±)-N-[(1H-benzimidazol-2-yl)methyl]-6-cyclopropyl-1-[oxolan-3-yl]-1H-pyrazolo[3,4-b]pyrazin-3-amine]
 | > 20000 nM | 42.5 nM | CC(C)(O)C1CC(n2nc(NCc3nc4ccccc4[nH]3)c3ncc(C4CC4)nc32)C1 (mixture of isomers) [Example 48, 2-[cis/trans-3-(3-{[(1H-benzimidazol-2-yl)methyl]amino}-6-cyclopropyl-1H-pyrazolo[3,4-b]pyrazin-1-yl)cyclobutyl]propan-2-ol]
